A short description of the series: Solubility of biocides in different solvents at 25° C. It is filed as physicochemical. On the procedure:
Solubility of two fungicides, one herbicide and one insecticide in different solvents at 25° C. was tested.

Setting [1] is: solvent: C8-C10 fatty acid dimethylamide (Ex. C3).
Setting [2] is: solvent: Lactic acid dimethyl amide (Ex. C4).
Where [3] appears, read: solvent: Levulinic acid tetrahydrofurfuryl ester (Ex. 7).

With `O=C(NC(=O)c1c(F)cccc1F)Nc1ccc(OC(F)(F)C(F)OC(F)(F)F)c(Cl)c1` (stereo not drawn) [Novaluron], the Solubility of biocides worked out at 32 % b.w under setting [1], 22 % b.w under setting [2] and 24 % b.w under setting [3].
The matching figures for `CCOc1cc(Oc2ccc(C(F)(F)F)cc2Cl)ccc1[N+](=O)[O-]` [Oxyfluorfen]: 31 % b.w, 23 % b.w and 33 % b.w.

Source of the values: patent US8728978B2, “Biocide compositions (IV)” (Cognis IP Management GmbH, priority 2009, dated 2014).
